In patent US12037343B2, “Process for the preparation of sodium (2r,5s,13ar)-7,9-dioxo-10-((2,4,6,-trifluorobenzyl)carbamoyl)-2,3,4,5,7,9,13,13A-octahydro-2,5-methanopyrido[1′,2′:4,5]pyrazino[2,1-B] [1,3] oxazepin-8-olate and its polymorphic form” (Honour Lab Limited, priority 2018, dated 2024):
Where two headings read alike, the source gives them in different places.

Assay type: physicochemical
Experimental: The stability of sample was tested by storing the samples at 40° C./75% relative humidity (RH) and 25° C./60% RH for 6 months. The stability of samples was tested by PXRD, HPLC and water content was measured by Karl Fischer method.

stability (PXRD pattern, water content, purity after storage): physically and chemically stable
Physical form (as assessed by PXRD) (4 month, 25° C./60% RH): Crystalline
Purity by HPLC (4 month, 25° C./60% RH): 99.78%
Water content by Karl Fischer method (4 month, 25° C./60% RH): 3.7%
Physical form (as assessed by PXRD) (4 month, 40° C./75% RH): Crystalline
Purity by HPLC (4 month, 40° C./75% RH): 99.78%
Water content by Karl Fischer method (4 month, 40° C./75% RH): 3.6%
Physical form (as assessed by PXRD) (5 month, 25° C./60% RH): Crystalline
Purity by HPLC (5 month, 25° C./60% RH): 99.78%
Water content by Karl Fischer method (5 month, 25° C./60% RH): 3.9%
Physical form (as assessed by PXRD) (5 month, 40° C./75% RH): Crystalline
Purity by HPLC (5 month, 40° C./75% RH): 99.77%
Water content by Karl Fischer method (5 month, 40° C./75% RH): 3.9%
Physical form (as assessed by PXRD) (6 month, 25° C./60% RH): Crystalline
Purity by HPLC (6 month, 25° C./60% RH): 99.78%
Water content by Karl Fischer method (6 month, 25° C./60% RH): 3.8%
Physical form (as assessed by PXRD) (6 month, 40° C./75% RH): Crystalline
Purity by HPLC (6 month, 40° C./75% RH): 99.78%
Water content by Karl Fischer method (6 month, 40° C./75% RH): 3.8%
Physical form (as assessed by PXRD) (Initial): Crystalline
Purity by HPLC (Initial): 99.82%
Water content by Karl Fischer method (Initial): 4.2%
Compound: O=C(NCc1c(F)cc(F)cc1F)c1cn2c(c(O)c1=O)C(=O)N1[C@H]3CC[C@H](C3)O[C@@H]1C2 [Form HN-1, sodium (2R,5S,13aR)-7,9-dioxo-10-((2,4,6-trifluorobenzyl)carbamoyl)-2,3,4,5,7,9,13,13a-octahydro-2,5-methanopyrido [1′,2′:4,5]pyrazino[2,1-b][1,3] oxazepin-8-olate]
